Data set [1] can be described thus: Solubility in buffered aqueous solutions. In kind it is physicochemical. To be noted: buffered aqueous solution, 25 °C, aqueous buffer, read-out: Solubility in water. The text has this: Syntex derived many basic physicochemical properties for both MPM and MPA in the early 1990s. The results for MPA are mostly given in the present study.
For another data set, the system named is Daphnia magna. As to the kind of experiment: OECD 211 chronic reproduction test. In kind it is in vivo. To be noted: GMMC. As to the method: An OECD 211 chronic reproduction test with the cladoceran Daphnia magna was performed by ECT Oekotoxikologie with a series of concentrations of MPA in daphnid test medium plus medium-only controls over 21 days (Egeler & Chambers 2018). The test medium was exchanged every 2–3 days, the daphnids were fed with live algae (Desmodesmus subspicatus) throughout the exposure. Fresh and old medium samples were analysed by LC–MS/MS (Supplemental Information) and the time-weighted mean measured concentrations (TWMMC) for the concentrations determined. Statistical data evaluation was performed using Williams's test, Fisher's Exact test, Multiple sequentially rejective U-test after Bonferroni-Holm and Probit analysis. The endpoints in this test were survival and size (length) of the parental daphnids at the end of the test; number of young daphnids released per surviving F0 mother; any malformations or undeveloped eggs; and the intrinsic rate of reproduction (IRR), which integrates both survival and reproduction, as a measure of longer-term stability (IRR ~1), growth (IRR >1) or decline (IRR <1) of a population.

The test system of a further data set is Danio rerio. As to the kind of experiment: Fish partial life cycle test, OECD 229 short-term reproduction phase (F0). In kind it is in vivo. The procedure:
At the highest tested concentration of 0.1 mg MPA/L nominal concentration (73 µg/L GMMC), only 2 of 75 hatched fish survived until the end of the test, showing that the test concentration range was well chosen. The most sensitive endpoints in this partial life cycle test were survival and growth in terms of length and mass of the young F1 fish; the effects were comparatively small but statistically significant at p = 0.05. In contrast, the F0 generation was impacted to a lesser extent.
In view of the mammalian mutagenicity and reprotoxicity, a fish partial life-cycle test (PLC; an OECD 229 short-term reproduction test followed by an OECD 210 early-life-stage test) was performed by ECT Oekotoxikologie under GLP with a series of concentrations of MPA in a flow-through setting with the zebrafish Danio rerio (Gilberg & Chambers 2018). Briefly, mature fish (F0 generation) in breeding groups of 14 fish were exposed to four concentrations of the test item (0.0005, 0.0029, 0.0171 and 0.100 mg MPA/L), in fish media as well as to controls without the test item, in two replicates per treatment including controls, for 23 days in a 14-hours light to 10-hours dark photoperiod (OECD 229 phase). During this time period, reproduction parameters (survival of parents, fecundity, e.g., number of eggs, fertility and embryo viability/hatchability) of zebrafish exposed to the test item were assessed in comparison with the controls to determine the lowest observed effect concentration (LOEC) and the NOEC. After 23 days, newly fertilised eggs of the F1 generation were collected and exposed to the corresponding series of test item concentrations, 20 eggs in four replicates each per treatment including controls, until 30 days post-hatch (OECD 210 phase). Lethal and sublethal effects of the test item on eggs, larvae and juvenile fish exposed to the test item were assessed in comparison with controls to determine the LOEC and the NOEC. Samples were taken and analysed by LC–MS/MS (Supplemental Information) and the GMMC for the concentrations determined. Statistical check were made using Probit analyses, Weibull analyses, 2- and 3-parameter normal CDF, Shapiro-Wilk’s test on normal distribution, Levene’s test on variance homogeneity, Fisher's Exact Binomial test, Chi² 2×2 Table Test, Welsh t-test, Step-down Cochran-Armitage test Procedure, Williams Multiple Sequential t-test Procedure and Dunnett`s Multiple t-test Procedure.

On the set-up of data set [2]: method as in Franquet‐Griell et al. (2017a). The note with it: ref Franquet‐Griell et al. (2017a), cited from earlier work.
Details of data set [3]: method as in FASS 2018. To be noted: OECD 209; ref FASS 2018; cited from earlier work.
The subject of data set [4] is Wistar rat embryos, murine embryonic stem cells, and mouse fibroblasts. More on the design: method as in Eckardt and Stahlmann 2010. To be noted: mammalian systems; ref Eckardt and Stahlmann 2010; cited from earlier work.
Data set [5] concerns inosine-5'-monophosphate dehydrogenase (IMPDH). The arrangement: method as in Wishart et al. 2018; Royal Pharmaceutical Society 2018. To be noted: ref Wishart et al. 2018; Royal Pharmaceutical Society 2018; cited from earlier work.
Data set [6] can be described thus: Derivation of predicted no-effect concentrations (PNEC) for STPs and surface water.
Description: The surface (fresh) water PNECSW was derived in 2 ways, from the lowest chronic NOEC on the one hand and from the lowest chronic 10% effect concentration (EC10) on the other, from (sub)chronic tests with fish, daphnids, green algae, and cyanobacteria (for the latter 2 the NOErC/ErC10 for growth rate [r] was used), using an assessment factor of 10 (Committee for Medicinal Products for Human Use 2015).

Converted amounts (≈) assume the structure as drawn. “And” between values parts separate entries of the source, which are not always exact repeats. Equal entries are not always repeated. Where two headings read alike, the source gives them in different places.

The solubility is the dissolved amount per volume that the medium holds.

As for `COc1c(C)c2c(c(O)c1CC=C(C)CCC(=O)O)C(=O)OC2` [MPA, 6‐(1,3‐dihydro‐4‐hydroxy‐6‐methoxy‐7‐methyl‐3‐oxo‐5‐isobenzofuranyl)‐4‐methyl‐4‐hexenoic acid], the solubility in data set [1] (pH 5, 25 ± 2 °C) was found to be 45 µg/mL (≈ 140 µM). Besides, the solubility in data set [1] (pH 7, 25 ± 2 °C) was 710 µg/mL (≈ 2220 µM). Further, in the data set on Daphnia magna (21 d), the “EC10, fecundity and reproduction” value was 0.929 µg/mL (≈ 2.9 µM); the “LOEC, fecundity and reproduction” value is reported as 1800 µg/L; the “LOEC, length of parental daphnids” value was determined as 1800 µg/L; the “NOEC, fecundity and reproduction” value turned out to be 630 µg MPA/L. The “NOEC, length of parental daphnids” value in the data set on Daphnia magna (21 d) came out at 630 µg/L. Also, in the data set on Daphnia magna, the “LOEC, mortality/immobility of parental daphnids and intrinsic rate of population increase” value is on record as greater than 7530 µg/L; the “overall EC10 for the daphnids” value worked out at 0.929 µg/mL; the “overall NOEC for the daphnids” value is given as 630 µg MPA/L. Moreover, the “NOEC, mortality/immobility of parental daphnids and intrinsic rate of population increase” value with Daphnia magna (highest tested concentration) came to 7530 µg MPA/L. Besides, in the data set on Danio rerio (23 d, GMMC), the “EC10 for survival of the parental fish” value was 0.0189 µg/mL and the “NOEC of all endpoints (survival of parental fish, fecundity, fertilization success), F0” value is recorded as 73 µg/L. Further, the “NOEC of all endpoints (survival of parental fish, fecundity, fertilization success), F0” value in the data set on Danio rerio (23 d, highest tested nominal concentration) is recorded as 100 µg MPA/L. Further, in the data set with Danio rerio (Danio rerio, in vivo, 23 days), the “EC10 for fecundity and fertilization success” value was greater than 73 µg MPA/L. Also, in data set [2] (fifth cycle), the “biodegradation rate constant k biodeg” value is 0.006 min^–1. Further, in data set [2] (first cycle), the “biodegradation rate constant k biodeg” value was 0.0017 min^–1. Further, in data set [3], the “3‐h EC50, respiration inhibition” value is 2213 µg/mL and the “EC10, respiration inhibition” value is 69 µg/mL (≈ 215 µM). The “concentrations causing proliferation, cellular and developmental toxicity” value in data set [4] was no less than 31 ng/mL. Also, in data set [5], the type of inhibition result is “reversible, potent, and noncompetitive inhibitor”. The “PNECEC10 (aquatic)” value in data set [6] (fish EC10, assessment factor of 10) was 0.58 µg MPA/L and 0.580 µg MPA/L. The “PNECNOEC (aquatic)” value in data set [6] (fish NOEC, assessment factor of 10) is reported as 0.132 µg MPA/L.

The values above are taken from publication PMC6856805, “Environmental Risk Assessment for the Active Pharmaceutical Ingredient Mycophenolic Acid in European Surface Waters” (Environmental Toxicology and Chemistry, 2019).
